Non-standard residues stand in square brackets, D forms with d. Residues, ends and D or L forms follow the SMILES beside them. *: point of attachment. Palmitoyl = CCCCCCCCCCCCCCCC(=O)*; Myristoyl = CCCCCCCCCCCCCC(=O)*; Decanoyl = CCCCCCCCCC(=O)*
Legend:
Format in all cases: cell-based
E. aerogenes ATCC 35029 = conditions: ATCC 35029, pH 7.4
Outline: (§1)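 Broth microdilution in LB medium at pH 7.4 (pH 5.5 where indicated), 1×10^6 CFU/ml suspension mixed 1:1 with 2-fold serial dilutions of lipopeptide in water. After 18-20 h at 37° C, growth read by absorbance at 600 nm; MIC is the concentration giving 100% growth inhibition.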

E. coli ATCC 35218 = conditions: ATCC 35218, pH 7.4
Outline: as §1

[1] = tested on: Pseudomonas aeruginosa ATCC 27853; conditions: ATCC 27853, pH 7.4
Outline: as §1

[2] = tested on: Staphylococcus aureus ATCC 6538P; conditions: ATCC 6538, pH 7.4
Outline: as §1

[3] = tested on: Candida albicans ATCC 10231; assay: microbe, parasite or virus in culture; conditions: ATCC 10231, pH 7.4
Outline: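 MIC = lowest concentration giving 100% growth inhibition by A620 after 24-48 h at 35 °C with agitation. Inoculum: 1×10^4 CFU/ml (pre-mix) in RPMI 1640/0.165 M MOPS; pH 7.4 by default, 5.5 where noted. Peptide as twofold dilution series in water.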

[4] = tested on: Cryptococcus neoformans ATCC MYA-422; assay: microbe, parasite or virus in culture; conditions: ATCC MYA-422, pH 7.4
[5] = tested on: Aspergillus fumigatus ATCC 26430; assay: microbe, parasite or virus in culture; conditions: ATCC 26430, pH 7.4
[6] = Cytotoxicity, XTT viability, non-cancer cells; conditions: mouse, non-cancer cell line, 24 h incubation, read-out: LC50, 3T3
Method: Prostate cancer cell lines (CL1 and 22RV1; ATCC, USA) were grown in RPMI-1640 supplemented with 10% FCS (Biological Industries, Beit Haemek, Israel). N1H-3T3 mouse fibroblast cell line (ATCC, USA) was grown in DMEM supplemented with 10% bovine serum. To test cytotoxicity against the cancer cells, aliquots of medium containing 1×10^4 cells were distributed into a 96-well plate (Falcon). After one day, the media were replaced with 90 μl of fresh media and 10 μl of a solution containing different concentrations of the peptides. The plate was then incubated for 24 h before adding to each well 50 μl of XTT reaction solution (Biological Industries, Beit Haemek, Israel); viability was determined as previously described (Papo et al., (2003) J. Biol. Chem. 278:21018-23). The LC50 (concentration at which 50% of the cells die) for each peptide was obtained from the dose-dependent cell viability curves.

Compound | Minimal Inhibitory Concentration, E. aerogenes ATCC 35029 (E. aerogenes ATCC 35029) | Minimal Inhibitory Concentration, E. coli ATCC 35218 (E. coli ATCC 35218) | Minimal Inhibitory Concentration, P. aeruginosa ATCC 27853 [1] | Minimal Inhibitory Concentration, S. aureus ATCC 6538P [2] | Minimal Inhibitory Concentration, C. albicans ATCC 10231 [3] | Minimal Inhibitory Concentration, C. neoformans ATCC MYA-422 [4] | Minimal Inhibitory Concentration, A. fumigatus ATCC 26430 [5] | CC50 at 24 h [6]
CCCCCCCCCCCCCCCC(=O)N[C@H](CC(C)C)C(=O)N[C@@H](CCCCN)C(=O)N[C@@H](CCCCN)C(=O)N[C@H](CC(C)C)C(=O)N[C@H](CC(C)C)C(=O)N[C@@H](CCCCN)C(=O)N[C@@H](CCCCN)C(=O)N[C@H](CC(C)C)C(=O)N[C@H](CC(C)C)C(=O)N[C@@H](CCCCN)C(=O)N[C@@H](CCCCN)C(=O)N[C@H](CC(C)C)C(N)=O [lipopeptide 24, (CH3-(CH2)14-CO-)-D-Leu-Lys-Lys-D-Leu-D-Leu-Lys-Lys-D-Leu-D-Leu-Lys-Lys-D-Leu-NH2] (Palmitoyl-[dL]KK[dL][dL]KK[dL][dL]KK[dL]-NH2) | >50 µM | 50 µM | >50 µM | 50 µM | 1.56 µM | 0.78 µM | 1.56 µM | 50 µM
CCCCCCCCCC(=O)N[C@H](CC(C)C)C(=O)N[C@@H](CCCCN)C(=O)N[C@@H](CCCCN)C(=O)N[C@H](CC(C)C)C(=O)N[C@H](CC(C)C)C(=O)N[C@@H](CCCCN)C(=O)N[C@@H](CCCCN)C(=O)N[C@H](CC(C)C)C(=O)N[C@H](CC(C)C)C(=O)N[C@@H](CCCCN)C(=O)N[C@@H](CCCCN)C(=O)N[C@H](CC(C)C)C(N)=O [lipopeptide 21, (CH3-(CH2)8-CO-)-D-Leu-Lys-Lys-D-Leu-D-Leu-Lys-Lys-D-Leu-D-Leu-Lys-Lys-D-Leu-NH2] (Decanoyl-[dL]KK[dL][dL]KK[dL][dL]KK[dL]-NH2) | 50 µM | 12.5 µM | 12.5 µM | 6.25 µM | 25 µM | 1.56 µM | 12.5 µM | –
CCCCCCCCCCCCCC(=O)N[C@H](CC(C)C)C(=O)N[C@@H](CCCCN)C(=O)N[C@@H](CCCCN)C(=O)N[C@H](CC(C)C)C(=O)N[C@H](CC(C)C)C(=O)N[C@@H](CCCCN)C(=O)N[C@@H](CCCCN)C(=O)N[C@H](CC(C)C)C(=O)N[C@H](CC(C)C)C(=O)N[C@@H](CCCCN)C(=O)N[C@@H](CCCCN)C(=O)N[C@H](CC(C)C)C(N)=O [lipopeptide 23, (CH3-(CH2)12-CO-)-D-Leu-Lys-Lys-D-Leu-D-Leu-Lys-Lys-D-Leu-D-Leu-Lys-Lys-D-Leu-NH2] (Myristoyl-[dL]KK[dL][dL]KK[dL][dL]KK[dL]-NH2) | >50 µM | 50 µM | 50 µM | 50 µM | 1.56 µM | 0.78 µM | 1.56 µM | 50 µM
CC(C)C[C@@H](N)C(=O)N[C@@H](CCCCN)C(=O)N[C@@H](CCCCN)C(=O)N[C@H](CC(C)C)C(=O)N[C@H](CC(C)C)C(=O)N[C@@H](CCCCN)C(=O)N[C@@H](CCCCN)C(=O)N[C@H](CC(C)C)C(=O)N[C@H](CC(C)C)C(=O)N[C@@H](CCCCN)C(=O)N[C@@H](CCCCN)C(=O)N[C@H](CC(C)C)C(N)=O [[D]-L6K6, LKKLLKKLLKKL, reference compound] (H-[dL]KK[dL][dL]KK[dL][dL]KK[dL]-NH2; N-terminus assumed) | >50 µM | 50 µM | >50 µM | >50 µM | >50 µM | >50 µM | >50 µM | > 100 µM

Reference: patent publication US8445636B2, “Antimicrobial and anticancer lipopeptides” (Yeda Research & Development Co. Ltd., priority 2003, dated 2013)
